Reference: ChEMBL document CHEMBL1138480, “Discovery of highly potent and selective biphenylacylsulfonamide-based beta3-adrenergic receptor agonists and evaluation of physical properties as potential overactive bladder therapies: part 5” (J Med Chem, 2009)

Columns and labels:
[1] = Inhibition of KCl-induced tonic contraction in Beagle dog detrusor muscle strips preincubated for 15 mins before KCl challenge; assay type: functional; conditions: Canis lupus familiaris
[2] = Protein binding in Beagle dog serum; assay type: ADME, cell-free, Canis lupus familiaris; conditions: read-out: PPB (converted)
[3] = target: Beta-3 adrenergic receptor (Canis lupus familiaris, UniProt O02662); assay: Agonist activity at dog recombinant beta3 adrenergic receptor expressed in CHO cells assessed as cAMP accumulation by enzyme immunoassay; assay type: functional, cell-based
[4] = system: Canis familiaris; assay: Inhibition of carbachol-induced increase in intravesical pressure in intraduodenally dosed Beagle dog OAB model for 30 mins measured for 180 mins; assay type: functional, organism-based; conditions: Canis lupus familiaris
[5] = system: Canis familiaris; assay: Inhibition of carbachol-induced increase in intravesical pressure in Beagle dog OAB model at 10 ug/kg, iv for 30 mins measured for 180 mins; assay type: functional; conditions: Canis lupus familiaris
[6] = Cmax in Beagle dog at 0.10 mg/kg, po by cassette assay; assay type: ADME, organism-based, Canis lupus familiaris; design: dose 0.1 mg/kg, route oral; conditions: in vivo, 0.1 mg/kg
[7] = AUC (0 to 24 hrs) in Beagle dog at 0.10 mg/kg, po by cassette assay; assay type: ADME, organism-based, Canis lupus familiaris; design: time < 24 hr, dose 0.1 mg/kg, route oral; conditions: plasma, 0.1 mg/kg
[8] = Terminal half life in Beagle dog plasma at 0.10 mg/kg, iv by cassette assay; assay type: ADME, organism-based, Canis lupus familiaris; design: dose 0.1 mg/kg, route intravenous; conditions: 0.1 mg/kg, read-out: beta t1/2 (converted)
[9] = Total clearance in Beagle dog at 0.10 mg/kg, iv by cassette assay; assay type: ADME, organism-based, Canis lupus familiaris; design: dose 0.1 mg/kg, route intravenous; conditions: in vivo, 0.1 mg/kg
[10] = Bioavailability in Beagle dog at 0.10 mg/kg, po and iv by cassette assay; assay type: ADME, organism-based, Canis lupus familiaris; conditions: in vivo, 0.1 mg/kg
[11] = Cmax in rat at 0.32 mg/kg, po by cassette assay; assay type: ADME, organism-based; design: dose 0.32 mg/kg, route oral; conditions: in vivo
[12] = AUC (0 to 24 hrs) in rat at 0.32 mg/kg, po by cassette assay; assay type: ADME, organism-based; design: time < 24 hr, dose 0.32 mg/kg, route oral; conditions: plasma
[13] = Terminal half life in rat plasma at 0.32 mg/kg, iv by cassette assay; assay type: ADME, organism-based; design: dose 0.32 mg/kg, route intravenous; conditions: read-out: beta t1/2 (converted)
[14] = Total clearance in rat at 0.32 mg/kg, iv by cassette assay; assay type: ADME, organism-based; design: dose 0.32 mg/kg, route intravenous; conditions: in vivo
[15] = Bioavailability in rat at 0.32 mg/kg, po and iv by cassette assay; assay type: ADME, organism-based; conditions: in vivo
[16] = Total clearance in monkey at 0.32 mg/kg, iv by cassette assay; assay type: ADME, organism-based, Macaca mulatta; design: dose 0.32 mg/kg, route intravenous; conditions: rhesus monkey, in vivo
[17] = Bioavailability in monkey at 0.32 mg/kg, po and iv by cassette assay; assay type: ADME, organism-based, Macaca mulatta; conditions: rhesus monkey, in vivo
[18] = target: Beta-3 adrenergic receptor (Homo sapiens, UniProt P13945); assay: Agonist activity at human recombinant beta3 adrenergic receptor expressed in CHO cells assessed as cAMP accumulation by enzyme immunoassay; assay type: functional, cell-based
[19] = target: Beta-1 adrenergic receptor (Homo sapiens, UniProt P08588)
Description: Agonist activity at human recombinant beta-1 adrenergic receptor expressed in CHO cells assessed as cAMP accumulation by enzyme immunoassay

[20] = target: Beta-2 adrenergic receptor (Homo sapiens, UniProt P07550)
Description: Agonist activity at human recombinant beta2 adrenergic receptor expressed in CHO cells assessed as cAMP accumulation by enzyme immunoassay

[21] = system: Canis familiaris; assay: Ratio of Cmax for drug to Cmax for (R)-4'-(2-(2-(3-chlorophenyl)-2-hydroxyethylamino)ethyl)-3-isopropoxybiphenyl-4-carboxylic acid in beagle dog at 0.1 or 0.2 mg/kg, po by cassette assay; assay type: ADME, organism-based, Canis lupus familiaris; design: dose 0.2 mg/kg, route oral; conditions: in vivo

Chain of Beta-3 adrenergic receptor (Canis lupus familiaris, UniProt O02662) (O02662 whole entry): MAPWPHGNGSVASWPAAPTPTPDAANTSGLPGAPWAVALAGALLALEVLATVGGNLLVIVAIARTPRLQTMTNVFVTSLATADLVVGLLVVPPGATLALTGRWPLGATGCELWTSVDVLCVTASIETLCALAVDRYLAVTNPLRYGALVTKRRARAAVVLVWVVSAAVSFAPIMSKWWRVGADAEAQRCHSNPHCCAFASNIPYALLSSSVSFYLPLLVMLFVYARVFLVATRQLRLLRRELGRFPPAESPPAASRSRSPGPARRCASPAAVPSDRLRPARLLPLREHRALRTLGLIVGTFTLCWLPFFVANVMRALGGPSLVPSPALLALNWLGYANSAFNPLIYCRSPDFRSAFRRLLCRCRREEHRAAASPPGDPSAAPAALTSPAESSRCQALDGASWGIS
Chain of Beta-1 adrenergic receptor (P08588 whole entry): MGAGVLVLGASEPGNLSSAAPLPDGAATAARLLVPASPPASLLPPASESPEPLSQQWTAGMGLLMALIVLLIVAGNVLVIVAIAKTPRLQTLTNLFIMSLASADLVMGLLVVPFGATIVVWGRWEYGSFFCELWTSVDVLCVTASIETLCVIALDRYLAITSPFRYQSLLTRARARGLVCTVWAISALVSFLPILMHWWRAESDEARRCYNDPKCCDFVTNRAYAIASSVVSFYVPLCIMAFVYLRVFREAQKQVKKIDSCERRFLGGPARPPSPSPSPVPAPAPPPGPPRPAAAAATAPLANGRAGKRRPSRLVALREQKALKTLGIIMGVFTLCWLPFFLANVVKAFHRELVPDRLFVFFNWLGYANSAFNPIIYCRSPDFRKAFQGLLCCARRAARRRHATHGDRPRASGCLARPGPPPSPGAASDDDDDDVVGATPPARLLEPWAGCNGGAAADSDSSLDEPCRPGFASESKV
Chain of Beta-2 adrenergic receptor (P07550 whole entry): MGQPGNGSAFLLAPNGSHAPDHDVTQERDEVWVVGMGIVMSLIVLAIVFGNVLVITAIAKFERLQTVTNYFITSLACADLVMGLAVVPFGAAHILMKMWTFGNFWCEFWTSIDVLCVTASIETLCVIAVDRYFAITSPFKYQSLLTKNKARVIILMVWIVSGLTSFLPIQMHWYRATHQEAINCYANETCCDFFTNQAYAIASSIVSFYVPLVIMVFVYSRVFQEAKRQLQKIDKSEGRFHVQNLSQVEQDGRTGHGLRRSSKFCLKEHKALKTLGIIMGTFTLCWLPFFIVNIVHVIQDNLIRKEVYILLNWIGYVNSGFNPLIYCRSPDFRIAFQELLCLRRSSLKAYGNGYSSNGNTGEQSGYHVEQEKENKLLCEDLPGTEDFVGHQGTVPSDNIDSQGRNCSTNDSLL
Chain of Beta-3 adrenergic receptor (Homo sapiens, UniProt P13945) (P13945 whole entry): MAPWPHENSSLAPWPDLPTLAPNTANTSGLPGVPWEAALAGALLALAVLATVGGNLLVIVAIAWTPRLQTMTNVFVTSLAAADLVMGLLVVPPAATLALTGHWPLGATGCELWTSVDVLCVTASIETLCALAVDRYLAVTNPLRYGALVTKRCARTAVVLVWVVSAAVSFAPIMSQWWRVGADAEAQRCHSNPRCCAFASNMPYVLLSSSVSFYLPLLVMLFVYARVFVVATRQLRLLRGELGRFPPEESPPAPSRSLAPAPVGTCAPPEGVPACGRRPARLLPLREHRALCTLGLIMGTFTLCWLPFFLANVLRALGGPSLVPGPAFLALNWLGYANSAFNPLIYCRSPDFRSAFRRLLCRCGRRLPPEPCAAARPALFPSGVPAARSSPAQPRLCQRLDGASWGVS

Compound | Cmax [6] [ng/mL] | AUC(0-t) at 24 h [7] [ng·h/mL] | half-life [8] [min] | clearance [9] [mL/min/kg] | bioavailability [10] [%] | EC50 ([18]; read-out: EC50) [nM] | EC50 [19] [nM] | further results
CC(C)Cc1cc(-c2ccc(CCNC[C@H](O)c3ccccc3)cc2)ccc1C(=O)O |  |  |  |  |  |  |  | EC50 ([1]; read-out: EC50): 8.7 nM; fraction unbound [2]: 0.14; EC50 ([3]; read-out: EC50): 2.2 nM; EC50 [4]: 18.7 nM; ED50 [4]: 0.0459 mg/kg
CC(C)Sc1cc(-c2ccc(CCNC[C@H](O)c3ccccc3)cc2)ccc1C(=O)O |  |  |  |  |  |  |  | EC50 ([1]; read-out: EC50): 11 nM; EC50 ([3]; read-out: EC50): 1.2 nM; EC50 [4]: 11.2 nM; ED50 [4]: 0.047 mg/kg
CC(C)Oc1cc(-c2ccc(CCNC[C@H](O)c3ccccc3)cc2)ccc1C(=O)O |  |  |  |  |  |  |  | EC50 ([1]; read-out: EC50): 6.8 nM; inhibition in vivo at 0.01 mg/kg [5]: > 70%
CS(=O)(=O)NC(=O)c1ccc(-c2ccc(CCNC[C@H](O)c3cnccc3N)cc2)cc1OC1CCCCC1.Cl.Cl | 2.5 | 26.7 | 402 | 34.9 | 54 |  |  | Cmax [11]: 3.3 ng/mL; AUC(0-t) at 24 h [12]: 6.3 ng·h/mL; half-life [13]: 102 min; clearance [14]: 36.4 mL/min/kg; bioavailability [15]: 5%; clearance [16]: 52 mL/min/kg; bioavailability [17]: 0%; ED50 [4]: 0.0143 mg/kg
CS(=O)(=O)NC(=O)c1ccc(-c2ccc(CCNC[C@H](O)c3cccnc3)cc2)cc1NC1CCCCC1.Cl.Cl.Cl | 10.3 | 28.4 | 78 | 12.4 | 21 | 0.062 | > 1000 | EC50 [20]: > 10 µM
CS(=O)(=O)NC(=O)c1ccc(-c2ccc(CCNC[C@H](O)c3ccccc3)cc2)cc1NC1CCCCC1.Cl.Cl | 3.2 | 33.5 | 234 | 9.9 | 22 | 0.14 | 900 | 
CC(C)Oc1cc(-c2ccc(CCNC[C@H](O)c3cccnc3)cc2)ccc1C(=O)O |  |  |  |  |  |  |  | EC50 ([1]; read-out: pEC50 (converted)): 7.94 nM; EC50 ([18]; read-out: pEC50 (converted)): 1.58 nM; Ratio [21]: 0.65; EC50 ([3]; read-out: pEC50 (converted)): 10 nM; EC50 [20]: > 10 µM
CS(=O)(=O)NC(=O)c1ccc(-c2ccc(CCNC[C@H](O)c3ccccc3)cc2)cc1OC1CCCC1 |  |  |  |  |  | 0.62 | 750 | 
CS(=O)(=O)NC(=O)c1ccc(-c2ccc(CCNC[C@H](O)c3ccccc3)cc2)cc1C1CCCCC1.Cl | 13.1 | 106 |  |  |  | 0.33 | > 1000 | 
CCCSc1cc(-c2ccc(CCNC[C@H](O)c3ccccc3)cc2)ccc1C(=O)NS(C)(=O)=O.Cl | 8.1 | 91.9 |  |  |  | 1.4 | > 1000 | 
CS(=O)(=O)NC(=O)c1ccc(-c2ccc(CCNC[C@H](O)c3ccccc3)cc2)cc1OC1CCCCCC1 |  |  |  |  |  | 0.38 | 220 | 
CS(=O)(=O)NC(=O)c1ccc(-c2ccc(CCNC[C@H](O)c3ccccc3)cc2)cc1SC1CCCCC1.Cl | 8 | 56.3 |  |  |  | 0.5 | 840 | 
CC(C)Nc1cc(-c2ccc(CCNC[C@H](O)c3cccnc3)cc2)ccc1C(=O)NS(C)(=O)=O.Cl.Cl.Cl | 1.9 | 10.4 | 162 | 16.4 | 12 | 0.2 | 320 | 
CS(=O)(=O)NC(=O)c1ccc(-c2ccc(CCNC[C@H](O)c3cccnc3)cc2)cc1C1CCCC1.Cl.Cl | 1.4 | 13.4 | 84 | 21.8 | 18 | 0.29 | > 1000 | 
O=C(O)c1ccc(-c2ccc(CCNC[C@H](O)c3cccnc3)cc2)cc1OC1CCCCC1 |  |  |  |  |  |  |  | EC50 ([1]; read-out: EC50): 14.1 nM; EC50 ([1]; read-out: pEC50 (converted)): 5.01 nM; fraction unbound [2]: 0.11; EC50 ([18]; read-out: pEC50 (converted)): 0.251 nM; Ratio [21]: 0.48; EC50 ([3]; read-out: pEC50 (converted)): 1.26 nM; EC50 [4]: 4 nM; ED50 [4]: 0.065 mg/kg; EC50 [20]: > 10 µM
CC(C)Sc1cc(-c2ccc(CCNC[C@H](O)c3cccnc3)cc2)ccc1C(=O)NS(C)(=O)=O.Cl.Cl | 5.3 | 50.9 | 258 | 5.4 | 14 | 0.19 | 240 | 
CS(=O)(=O)NC(=O)c1ccc(-c2ccc(CCNC[C@H](O)c3ccccc3)cc2)cc1C1CCCC1.Cl | 17.1 | 211 | 282 | 4 | 50 | 0.41 | > 1000 | 
CS(=O)(=O)NC(=O)c1ccc(-c2ccc(CCNC[C@H](O)c3ccccc3)cc2)cc1CC1CCCCC1.Cl | 27.9 | 230 | 234 | 4.9 | 70 | 0.54 | 370 | 
CC(C)Cc1cc(-c2ccc(CCNC[C@H](O)c3cccnc3)cc2)ccc1C(=O)O |  |  |  |  |  |  |  | Ratio [21]: 0.36

Continued, in another order:

Cmax [6] [ng/mL] | AUC(0-t) at 24 h [7] [ng·h/mL] | half-life [8] [min] | clearance [9] [mL/min/kg] | bioavailability [10] [%] | EC50 ([18]; read-out: EC50) [nM] | EC50 [19] [nM] | Compound | further results
17.5 | 212 | 342 | 5 | 68 | 0.5 | > 1000 | CS(=O)(=O)NC(=O)c1ccc(-c2ccc(CCNC[C@H](O)c3ccc(N)cc3)cc2)cc1OC1CCCCC1.Cl.Cl | EC50 ([18]; read-out: pEC50 (converted)): 0.0631 nM
70.3 | 756 | 264 | 2.2 | 98 | 0.6 | > 1000 | CS(=O)(=O)NC(=O)c1ccc(-c2ccc(CCNC[C@H](O)c3ccccc3)cc2)cc1Oc1ccccc1.Cl | EC50 ([3]; read-out: EC50): 2.9 nM; inhibition in vivo at 0.01 mg/kg [5]: 35%
 |  |  |  |  | 1 | 130 | CC(C)Oc1cc(-c2ccc(CCNC[C@H](O)c3cccnc3)cc2)ccc1C(=O)NS(C)(=O)=O | 
24.9 | 210 | 210 | 5.3 | 67 | 0.46 | > 1000 | CC(C)Cc1cc(-c2ccc(CCNC[C@H](O)c3ccccc3)cc2)ccc1C(=O)NS(C)(=O)=O.Cl | EC50 ([1]; read-out: EC50): 2.6 nM; fraction unbound [2]: 0.08; Cmax [11]: 6.4 ng/mL; AUC(0-t) at 24 h [12]: 64.8 ng·h/mL; half-life [13]: 150 min; clearance [14]: 35.2 mL/min/kg; bioavailability [15]: 40%; EC50 ([3]; read-out: EC50): 0.88 nM; inhibition in vivo at 0.01 mg/kg [5]: > 70%; EC50 [4]: 14.2 nM; ED50 [4]: 0.0247 mg/kg; EC50 [20]: > 10 µM
 |  |  |  |  | 18 | 730 | COc1cc(-c2ccc(CCNC[C@H](O)c3ccccc3)cc2)ccc1C(=O)NS(C)(=O)=O | 
 |  |  |  |  | 2.8 | 160 | CCCCCOc1cc(-c2ccc(CCNC[C@H](O)c3ccccc3)cc2)ccc1C(=O)NS(C)(=O)=O | 
 |  |  |  |  | 5.5 | > 1000 | CC(C)Oc1cc(-c2ccc(CCNC[C@H](O)c3ccc(N)cc3)cc2)ccc1C(=O)NS(C)(=O)=O | EC50 ([18]; read-out: pEC50 (converted)): 0.2 nM
33.4 | 562 | 720 | 2.3 | 75 | 3.1 | > 1000 | CC(C)Oc1cc(-c2ccc(CCNC[C@H](O)c3ccccc3)cc2)ccc1C(=O)NS(C)(=O)=O.Cl | EC50 ([18]; read-out: pEC50 (converted)): 0.631 nM; EC50 ([3]; read-out: EC50): 4.9 nM; EC50 ([3]; read-out: pEC50 (converted)): 1 nM; inhibition in vivo at 0.01 mg/kg [5]: 51%
2.6 | 12 | 36 | 35.9 | 21 | 0.32 | 490 | CC(C)Cc1cc(-c2ccc(CCNC[C@H](O)c3cccnc3)cc2)ccc1C(=O)NS(C)(=O)=O.Cl.Cl | 
